Test results reported in article PMC12323867 (RSC Medicinal Chemistry, 2025).
Values joined by “and” are separate entries in the source; they are usually repeats but may differ in a detail not shown here. Equal values may be shown once. Read-outs that look alike come from different tables or passages of the source.

Biological target: T1, LSD1-HDAC1-CoREST complex (Homo sapiens, UniProt O60341)
T1 construct: full length native LSD1 (UniProt ID: O60341); made in house; host or cells: HEK 293F cells (co-transfection, pcDNA3 vectors)
Test: LSD1 HRP-coupled demethylase assay, SP2509/SP2577 analogues
Assay type: biochemical
Description: The analogues synthesised were then tested for their ability to inhibit LSD1 using purified LSD1-HDAC1-CoREST complex (Fig. 2B). We used an established fluorescent read out horseradish peroxidase (HRP) assay to monitor LSD1 enzymatic activity in the CoREST complex[8] (see ESI ^† for full details).
2. Supplementary Information: Biology
2.1. LSD-HDAC1-CoREST expression and purification
Lysis Buffer (Buffer A) Wash Buffer (Buffer B)
• 50 mM Tris/Cl pH 7.5 • 50 mM Tris/Cl pH 7.5
• 50 mM Potassium Acetate • 50 mM Potassium Acetate […]
Cleavage Buffer (Buffer C) Gel Filtration Buffer (Buffer D)
• 50 mM Tris/Cl pH 7.5 Filtered at vacuum.
• 50 mM Potassium Acetate • 50 mM Tris/Cl pH 7.5
• 5 % v/v Glycerol • 50 mM Potassium Acetate
• 0.5 mM tris(2- • 0.5 mM TCEP carboxyethyl)phosphine (TCEP)
The CoREST ternary complex was comprised of full length native LSD1 (UniProt ID: O60341), full length HDAC1 (UniProt ID: Q13547) and N-terminally truncated RCOR1 (86-485aa) (UniProt ID:
Q9UKL0). Protein constructs were cloned into pcDNA3 vector. The RCOR1 constructs contained an N-terminal (His)10(Flag)3 tag followed by a Tev protease cleavage site. The constructs for ternary complex were co-transfected into suspension-grow HEK 293F cells (Thermofisher Scientific) with polyethylenimine (PEI) (Sigma) and harvested after 48 hours. This section of the procedure was carried out as described previously in literature.11,12
Cell pellets from 1.2 L culture were defrosted, and buffer A (30 mL) was added. The solution was sonicated (Soniprep 150) in an beaker of ice using a 9 mm probe at 10 ampules; operated with 10 […]
2.2. SP2509/SP2577 analogues LSD1 HRP-coupled demethylase assay protocol The commercial reagents for the assay were HRP and Amplex® Ultrared, which are available to purchase from ThermoFisher (31490) and Invitrogen (10737474), respectively. HRP was made up to 8 mg/mL stock solution in 1xPBS buffer, divided into 10 µL aliquots, snap-frozen in liquid nitrogen and stored at -80 °C. Amplex® Ultrared was made up to 10 mM solution in DMSO, divided into 20 µL aliquots and wrapped in foil, away from light and stored at -20 °C. For each assay experiment, CoREST complex was diluted to 500 nM in assay buffer (20 mM HEPES pH 7.5 and 50 mM NaCl).
HRP was defrosted by diluting each aliquot in 90 µL 1xPBS solution, making a 0.8 mg/mL solution.
Amplex® Ultrared was made up to 200 µM in assay buffer. HRP and Amplex® Ultrared were pre-mixed before addition to the plate. H3K4Me2 substrate (4 mM in deionised water) was diluted to 300 µM in assay buffer. All stocks were stored on ice during assay preparation.
The assay was carried out using a ‘black well’ 96 well plate (Corning no. 3915) in a reaction volume of 100 μL. The final concentrations in the assay were as follows: 50 nM CoREST complex, 10 μM Amplex® UltraRed, 0.04 mg/mL HRP and 15 μM H3K4Me2 peptide substrate. The final DMSO concentration in each well was 1.1 %. Three wells of each experiments were designated ‘background controls’ and contained 85 μL assay buffer, premixed Amplex® UltraRed and HRP (10 µL) and H3K4Me peptide substrate (300 μM, 5 µL).
A stock solution of inhibitor (1 -5 mM in DMSO) was subjected to an inhibitor dilution series, in Eppendorf tubes, in 100 % DMSO. Each new inhibitor stock (4 μL) was diluted in assay buffer (1 in 75) within a new Eppendorf set with assay buffer (20 mM HEPES pH 7.5 and 50 m M NaCl), ensuring the percentage of DMSO was consistent throughout the series. To each well of interest, Inhibitor in assay buffer (75 μL) was added, and CoREST complex (500 nM, 10 µL) was added thereafter. The plate was placed on a rocker and pre -incubated for 30 mins. To each well, premixed Amplex® UltraRed and HRP (10 µL) was added before H3K4Me 2 peptide substrate in assay buffer solution (300 μM, 5 µL) was added to the wall of the plate. The plate was covered in foil and spun down for one minute before being placed in the plate reader. The final percentage concentration of DMSO in […]

In the case of `C/C(=N\NC(=O)c1cccc(S(=O)(=O)N2CCOCC2)c1)c1cc(Cl)ccc1O` [SP2509, reference compound], the IC50 (LSD1 enzymatic activity, complex 50 nM, HRP assay, SP2509 value is mean of three sets, read-out: LSD1-HDAC1-CoREST IC50) is reported as 0.0542 µM and the IC50 (per parallel set, each set with SP2509 as reference standard, read-out: IC50 from dose response curves (Figure S1)) is reported as 0.052 µM and 0.056 µM and 0.055 µM.
